Results published in the supplement of paper PMC10307832.

Experiments:
Experiment in all cases: relative viability (nuclei count vs DMSO), 5 days (fraction); higher = more cells survive
[1] = compound: C/C(=N\NC(=S)N1CCC1)/C2=CC=CC=N2 + NC(=O)Nc1cc(-c2cccc(F)c2)sc1C(=O)N[C@H]1CCCNC1 [AZD7762] (partner 0.2 µM)
Method in brief: (§1)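 Cells from lung cancer lines were seeded into 1536-well plates and, one day later, dosed by pin tool. Treatments were either a single drug or a fixed dose of an anchor drug with five library-drug doses (not always all listed) in √10 steps. After 5 days, nuclei were stained in a one-step fixation (final 0.05% Triton X-100, 1% formaldehyde, 1 ug/ml Hoechst) and counted on 4× images, and relative viability is the treated-to-vehicle nuclei ratio, as the median of duplicate plates.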

[2] = compound: C/C(=N\NC(=S)N1CCC1)/C2=CC=CC=N2 + Nc1nc2[nH]cc(CCc3ccc(C(=O)N[C@@H](CCC(=O)O)C(=O)O)cc3)c2c(=O)[nH]1 [Pemetrexed] (partner 0.2 µM)
Method in brief: as §1

[3] = compound: C/C(=N\NC(=S)N1CCC1)/C2=CC=CC=N2 + COc1cccc2cc(-c3nc([C@H]4CC[C@H](C(=O)O)CC4)n4ncnc(N)c34)[nH]c12 [OSI-027] (partner 0.5 µM)
Method in brief: as §1

[4] = compound: C/C(=N\NC(=S)N1CCC1)/C2=CC=CC=N2 + COc1cc2c(Oc3ccc(NC(=O)C4(C(=O)Nc5ccc(F)cc5)CC4)cc3F)ccnc2cc1OCCCN1CCOCC1 [Foretinib] (partner 0.25 µM)
Method in brief: as §1

HCC-827 was tested, and the relative viability ([1]; first compound 0.05 µM) was 0.14, the relative viability ([1]; first compound 0.1581 µM) was 0.176 and the relative viability ([1]; first compound 0.5 µM) was 0.104. For the same cell line, the relative viability ([1]; first compound 1.581 µM) was 0.106, the relative viability ([1]; first compound 5 µM) was 0.172 and the relative viability ([2]; first compound 0.05 µM) was 0.224. For the same cell line, the relative viability ([2]; first compound 0.1581 µM) was 0.225, the relative viability ([2]; first compound 0.5 µM) was 0.259 and the relative viability ([2]; first compound 1.581 µM) was 0.152. The relative viability ([2]; first compound 5 µM) was 0.171, the relative viability ([3]; first compound 0.05 µM) was 0.288 and the relative viability ([3]; first compound 0.1581 µM) was 0.281. It also gave a relative viability ([3]; first compound 0.5 µM) of 0.156, a relative viability ([3]; first compound 1.581 µM) of 0.176 and a relative viability ([3]; first compound 5 µM) of 0.168. The relative viability ([4]; first compound 0.05 µM) was 0.538, the relative viability ([4]; first compound 0.1581 µM) was 0.583 and the relative viability ([4]; first compound 0.5 µM) was 0.239. The relative viability ([4]; first compound 1.581 µM) was 0.223 and the relative viability ([4]; first compound 5 µM) was 0.17.

Work on HCC-78 yielded a relative viability ([1]; first compound 0.05 µM) of 0.327, a relative viability ([1]; first compound 0.1581 µM) of 0.332 and a relative viability ([1]; first compound 0.5 µM) of 0.226. For the same cell line, the relative viability ([1]; first compound 1.581 µM) was 0.169, the relative viability ([1]; first compound 5 µM) was 0.174 and the relative viability ([2]; first compound 0.05 µM) was 0.96. For the same cell line, the relative viability ([2]; first compound 0.1581 µM) was 0.872, the relative viability ([2]; first compound 0.5 µM) was 0.854 and the relative viability ([2]; first compound 1.581 µM) was 0.84. For the same cell line, the relative viability ([2]; first compound 5 µM) was 0.863, the relative viability ([3]; first compound 0.05 µM) was 0.299 and the relative viability ([3]; first compound 0.1581 µM) was 0.354. For the same cell line, the relative viability ([3]; first compound 0.5 µM) was 0.332, the relative viability ([3]; first compound 1.581 µM) was 0.237 and the relative viability ([3]; first compound 5 µM) was 0.23. It also gave a relative viability ([4]; first compound 0.05 µM) of 0.488, a relative viability ([4]; first compound 0.1581 µM) of 0.451 and a relative viability ([4]; first compound 0.5 µM) of 0.367. For the same cell line, the relative viability ([4]; first compound 1.581 µM) was 0.237 and the relative viability ([4]; first compound 5 µM) was 0.235.

In the case of NCI-H2085, the relative viability ([1]; first compound 0.05 µM) is reported as 0.263, the relative viability ([1]; first compound 0.1581 µM) is reported as 0.278 and the relative viability ([1]; first compound 0.5 µM) is reported as 0.293. For the same cell line, the relative viability ([1]; first compound 1.581 µM) was 0.223, the relative viability ([1]; first compound 5 µM) was 0.271 and the relative viability ([2]; first compound 0.05 µM) was 0.248. For the same cell line, the relative viability ([2]; first compound 0.1581 µM) was 0.264, the relative viability ([2]; first compound 0.5 µM) was 0.237 and the relative viability ([2]; first compound 1.581 µM) was 0.178. For the same cell line, the relative viability ([2]; first compound 5 µM) was 0.244, the relative viability ([3]; first compound 0.05 µM) was 0.276 and the relative viability ([3]; first compound 0.1581 µM) was 0.214. The relative viability ([3]; first compound 0.5 µM) was 0.255, the relative viability ([3]; first compound 1.581 µM) was 0.24 and the relative viability ([3]; first compound 5 µM) was 0.187. The relative viability ([4]; first compound 0.05 µM) was 0.322, the relative viability ([4]; first compound 0.1581 µM) was 0.373 and the relative viability ([4]; first compound 0.5 µM) was 0.296. It also gave a relative viability ([4]; first compound 1.581 µM) of 0.269 and a relative viability ([4]; first compound 5 µM) of 0.253.

In the case of PC-14, the relative viability ([1]; first compound 0.05 µM) is reported as 0.08, the relative viability ([1]; first compound 0.1581 µM) is reported as 0.12 and the relative viability ([1]; first compound 0.5 µM) is reported as 0.106. The relative viability ([1]; first compound 1.581 µM) was 0.0559, the relative viability ([1]; first compound 5 µM) was 0.0985 and the relative viability ([2]; first compound 0.05 µM) was 0.0492. The relative viability ([2]; first compound 0.1581 µM) was 0.0611, the relative viability ([2]; first compound 0.5 µM) was 0.0691 and the relative viability ([2]; first compound 1.581 µM) was 0.0506. It also gave a relative viability ([2]; first compound 5 µM) of 0.0521, a relative viability ([3]; first compound 0.05 µM) of 0.0306 and a relative viability ([3]; first compound 0.1581 µM) of 0.0778. It also gave a relative viability ([3]; first compound 0.5 µM) of 0.0467, a relative viability ([3]; first compound 1.581 µM) of 0.041 and a relative viability ([3]; first compound 5 µM) of 0.0364. It also gave a relative viability ([4]; first compound 0.05 µM) of 0.141, a relative viability ([4]; first compound 0.1581 µM) of 0.113 and a relative viability ([4]; first compound 0.5 µM) of 0.129. For the same cell line, the relative viability ([4]; first compound 1.581 µM) was 0.0971 and the relative viability ([4]; first compound 5 µM) was 0.0805.

For NCI-H2342, the relative viability ([1]; first compound 0.05 µM) was 0.302, the relative viability ([1]; first compound 0.1581 µM) was 0.32 and the relative viability ([1]; first compound 0.5 µM) was 0.278. It also gave a relative viability ([1]; first compound 1.581 µM) of 0.256, a relative viability ([1]; first compound 5 µM) of 0.285 and a relative viability ([2]; first compound 0.05 µM) of 0.262. It also gave a relative viability ([2]; first compound 0.1581 µM) of 0.288, a relative viability ([2]; first compound 0.5 µM) of 0.277 and a relative viability ([2]; first compound 1.581 µM) of 0.259. The relative viability ([2]; first compound 5 µM) was 0.251, the relative viability ([3]; first compound 0.05 µM) was 0.288 and the relative viability ([3]; first compound 0.1581 µM) was 0.263. For the same cell line, the relative viability ([3]; first compound 0.5 µM) was 0.27, the relative viability ([3]; first compound 1.581 µM) was 0.264 and the relative viability ([3]; first compound 5 µM) was 0.262. For the same cell line, the relative viability ([4]; first compound 0.05 µM) was 0.255, the relative viability ([4]; first compound 0.1581 µM) was 0.244 and the relative viability ([4]; first compound 0.5 µM) was 0.263. For the same cell line, the relative viability ([4]; first compound 1.581 µM) was 0.24 and the relative viability ([4]; first compound 5 µM) was 0.233.

HCC-44 was tested, and the relative viability ([1]; first compound 0.05 µM) was 0.702, the relative viability ([1]; first compound 0.1581 µM) was 0.573 and the relative viability ([1]; first compound 0.5 µM) was 0.488. For the same cell line, the relative viability ([1]; first compound 1.581 µM) was 0.445, the relative viability ([1]; first compound 5 µM) was 0.47 and the relative viability ([2]; first compound 0.05 µM) was 0.599. For the same cell line, the relative viability ([2]; first compound 0.1581 µM) was 0.52, the relative viability ([2]; first compound 0.5 µM) was 0.549 and the relative viability ([2]; first compound 1.581 µM) was 0.547. The relative viability ([2]; first compound 5 µM) was 0.424, the relative viability ([3]; first compound 0.05 µM) was 0.183 and the relative viability ([3]; first compound 0.1581 µM) was 0.221. The relative viability ([3]; first compound 0.5 µM) was 0.261, the relative viability ([3]; first compound 1.581 µM) was 0.195 and the relative viability ([3]; first compound 5 µM) was 0.297.

Work on NCI-H2228 yielded a relative viability ([2]; first compound 0.05 µM) of 0.107, a relative viability ([2]; first compound 0.1581 µM) of 0.147 and a relative viability ([2]; first compound 0.5 µM) of 0.116. The relative viability ([2]; first compound 1.581 µM) was 0.0863, the relative viability ([2]; first compound 5 µM) was 0.121 and the relative viability ([3]; first compound 0.05 µM) was 0.116. For the same cell line, the relative viability ([3]; first compound 0.1581 µM) was 0.152, the relative viability ([3]; first compound 0.5 µM) was 0.207 and the relative viability ([3]; first compound 5 µM) was 0.0944. For the same cell line, the relative viability ([4]; first compound 0.05 µM) was 0.227, the relative viability ([4]; first compound 0.1581 µM) was 0.129 and the relative viability ([4]; first compound 0.5 µM) was 0.145. For the same cell line, the relative viability ([4]; first compound 5 µM) was 0.113.

ABC-1 showed a relative viability ([1]; first compound 0.05 µM) of 0.282, a relative viability ([1]; first compound 0.1581 µM) of 0.342 and a relative viability ([1]; first compound 0.5 µM) of 0.341. The relative viability ([1]; first compound 1.581 µM) was 0.288, the relative viability ([1]; first compound 5 µM) was 0.305 and the relative viability ([3]; first compound 0.05 µM) was 0.257. The relative viability ([3]; first compound 0.1581 µM) was 0.191, the relative viability ([3]; first compound 0.5 µM) was 0.239 and the relative viability ([3]; first compound 1.581 µM) was 0.226. It also gave a relative viability ([3]; first compound 5 µM) of 0.2, a relative viability ([4]; first compound 0.05 µM) of 0.13 and a relative viability ([4]; first compound 0.1581 µM) of 0.243. The relative viability ([4]; first compound 0.5 µM) was 0.197, the relative viability ([4]; first compound 1.581 µM) was 0.207 and the relative viability ([4]; first compound 5 µM) was 0.208.

For COR-L23, the relative viability ([2]; first compound 0.05 µM) was 0.149, the relative viability ([2]; first compound 0.1581 µM) was 0.169 and the relative viability ([2]; first compound 0.5 µM) was 0.163. It also gave a relative viability ([2]; first compound 1.581 µM) of 0.105, a relative viability ([2]; first compound 5 µM) of 0.123 and a relative viability ([3]; first compound 0.05 µM) of 0.116. The relative viability ([3]; first compound 0.1581 µM) was 0.111, the relative viability ([3]; first compound 0.5 µM) was 0.108 and the relative viability ([3]; first compound 1.581 µM) was 0.0709. For the same cell line, the relative viability ([3]; first compound 5 µM) was 0.0853, the relative viability ([4]; first compound 0.05 µM) was 0.147 and the relative viability ([4]; first compound 0.1581 µM) was 0.132. For the same cell line, the relative viability ([4]; first compound 0.5 µM) was 0.14, the relative viability ([4]; first compound 1.581 µM) was 0.0938 and the relative viability ([4]; first compound 5 µM) was 0.0923.
